Key:
Format in all cases: in vivo, human
[1] = system: patients with moderate to severe plaque psoriasis; assay: Pruritus in ESTEEM 1; conditions: Week 16, 30 mg BID
Description: Patients were randomized with Apremilast in an amount of 30 mg twice per day or placebo for the first 16 weeks, and from Weeks 16 to 32, all patients received Apremilast in an amount of 30 mg twice per day.

Alanine Aminotransferase = assay: ALT levels in PALACE 1, 2, and 3 clinical studies
Source text: (§1) Apremilast was studied in Phase 3 trials in both psoriatic arthritis and psoriasis patient populations and a Phase 2 trial in rheumatoid arthritis patients on background methotrexate. […] The improvement in mild baseline liver function test abnormalities has been observed with apremilast daily use without any prescribed changes in physical activity, social or dietary habits. The majority of the patient populations in both the psoriatic arthritis and psoriasis studies were overweight with the mean BMI for subjects greater than or equal to 30, more than half were consuming alcoholic beverages regularly, approximately 60% were taking methotrexate at an average dose of […], and 70% were using non-steroidal anti-inflammatory drugs (NSAIDs). […] During the course of the study, there was observed a higher proportion of subjects in the apremilast treatment groups (both 20 mg BID and 30 mg BID) with normal LFTs (i.e. normal levels of ALT and AST) at subsequent placebo-controlled study visits at week 4, week 16, and week 24 (See Tables 1 to 10 from PALACE 1, 2, and 3 studies).

[2] = system: Aspartate Aminotransferase; assay: AST levels in PALACE 1, 2, and 3 clinical studies
Source text: as §1

[3] = Baseline High, Week 24, 20 mg BID
[4] = Baseline High, Week 24, 30 mg BID
[5] = Baseline Normal, Week 24, 20 mg BID
[6] = Baseline Normal, Week 24, 30 mg BID
[7] = Baseline Total, Week 24, 20 mg BID
[8] = Baseline Total, Week 24, 30 mg BID

CCOc1cc([C@@H](CS(C)(=O)=O)N2C(=O)c3cccc(NC(C)=O)c3C2=O)ccc1OC [Apremilast, (+)-2-[1-(3-ethoxy-4-methoxyphenyl)-2-methylsulfonylethyl]-4-acetylaminoisoindoline-1,3-dione]
Change in Pruritus Visual Analog Scale (mm ± SD) [1]: −31.5 (±32.43) mm
ALT High to Normal, percent of patients (Alanine Aminotransferase; 20 BID, end of treatment): 55.3%
ALT Net Benefit (Alanine Aminotransferase; 20 BID, end of treatment): 40.6%
ALT Normal to High, percent of patients (Alanine Aminotransferase; 20 BID, end of treatment): 4.5%
ALT High to Normal, Difference between Placebo and APR 30 BID (Alanine Aminotransferase; 30 BID, end of treatment): 44.4%
ALT High to Normal, percent of patients (Alanine Aminotransferase; 30 BID, end of treatment): 74.4%
ALT Net Benefit (Alanine Aminotransferase; 30 BID, end of treatment): 51.8%
ALT Net Benefit, Difference between Placebo and APR 30 BID (Alanine Aminotransferase; 30 BID, end of treatment): 36.8%
ALT Normal to High, Difference between Placebo and APR 30 BID (Alanine Aminotransferase; 30 BID, end of treatment): −2.8%
ALT Normal to High, percent of patients (Alanine Aminotransferase; 30 BID, end of treatment): 4.4%
ALT High, % of patients (Alanine Aminotransferase; [3]): 44.7%
ALT Low, % of patients (Alanine Aminotransferase; [3]): 0.0%
ALT Normal, % of patients (Alanine Aminotransferase; [3]): 55.3%
ALT High, % of patients (Alanine Aminotransferase; [4]): 25.6%
ALT Low, % of patients (Alanine Aminotransferase; [4]): 0.0%
ALT Normal, % of patients (Alanine Aminotransferase; [4]): 74.4%
ALT High, % of patients (Alanine Aminotransferase; [5]): 4.5%
ALT Low, % of patients (Alanine Aminotransferase; [5]): 0.0%
ALT Normal, % of patients (Alanine Aminotransferase; [5]): 95.5%
ALT High, % of patients (Alanine Aminotransferase; [6]): 4.4%
ALT Low, % of patients (Alanine Aminotransferase; [6]): 0.0%
ALT Normal, % of patients (Alanine Aminotransferase; [6]): 95.6%
ALT High, % of patients (Alanine Aminotransferase; [7]): 8.9%
ALT Low, % of patients (Alanine Aminotransferase; [7]): 0.0%
ALT Normal, % of patients (Alanine Aminotransferase; [7]): 91.1%
ALT High, % of patients (Alanine Aminotransferase; [8]): 6.3%
ALT Low, % of patients (Alanine Aminotransferase; [8]): 0.0%
ALT Normal, % of patients (Alanine Aminotransferase; [8]): 93.7%
Baseline High ALT: High % (Alanine Aminotransferase; Week 4, 20 mg BID): 54.2%
Baseline High ALT: Normal % (Alanine Aminotransferase; Week 4, 20 mg BID): 45.8%
Baseline High ALT: Normal % difference from Placebo (Alanine Aminotransferase; Week 4, 20 mg BID): 8.7%
Baseline High ALT: High % (Alanine Aminotransferase; Week 4, 30 mg BID): 41.1%
Baseline High ALT: Normal % (Alanine Aminotransferase; Week 4, 30 mg BID): 58.9%
Baseline High ALT: Normal % difference from Placebo (Alanine Aminotransferase; Week 4, 30 mg BID): 21.8%
Baseline High ALT: High % (Alanine Aminotransferase; Week 16, 20 mg BID): 36.8%
Baseline High ALT: Normal % (Alanine Aminotransferase; Week 16, 20 mg BID): 63.2%
Baseline High ALT: Normal % difference from Placebo (Alanine Aminotransferase; Week 16, 20 mg BID): 12.4%
Baseline High ALT: High % (Alanine Aminotransferase; Week 16, 30 mg BID): 32.7%
Baseline High ALT: Normal % (Alanine Aminotransferase; Week 16, 30 mg BID): 67.3%
Baseline High ALT: Normal % difference from Placebo (Alanine Aminotransferase; Week 16, 30 mg BID): 16.5%
Baseline High ALT: High % (Alanine Aminotransferase; Week 24, 20 mg BID): 45.1%
Baseline High ALT: Normal % (Alanine Aminotransferase; Week 24, 20 mg BID): 54.9%
Baseline High ALT: Normal % difference from Placebo (Alanine Aminotransferase; Week 24, 20 mg BID): 14.9%
Baseline High ALT: High % (Alanine Aminotransferase; Week 24, 30 mg BID): 23.8%
Baseline High ALT: Normal % (Alanine Aminotransferase; Week 24, 30 mg BID): 76.2%
Baseline High ALT: Normal % difference from Placebo (Alanine Aminotransferase; Week 24, 30 mg BID): 36.2%
AST High to Normal, percent of patients ([2]; 20 BID, end of treatment): 60.9%
AST Net Benefit ([2]; 20 BID, end of treatment): 32.6%
AST Normal to High, percent of patients ([2]; 20 BID, end of treatment): 5.0%
AST High to Normal, Difference between Placebo and APR 30 BID ([2]; 30 BID, end of treatment): 13.3%
AST High to Normal, percent of patients ([2]; 30 BID, end of treatment): 73.3%
AST Net Benefit ([2]; 30 BID, end of treatment): 48.9%
AST Net Benefit, Difference between Placebo and APR 30 BID ([2]; 30 BID, end of treatment): 23.9%
AST Normal to High, Difference between Placebo and APR 30 BID ([2]; 30 BID, end of treatment): −6.4%
AST Normal to High, percent of patients ([2]; 30 BID, end of treatment): 3.8%
AST High, % of patients [2, 3]: 39.1%
AST Low, % of patients [2, 3]: 0.0%
AST Normal, % of patients [2, 3]: 60.9%
AST High, % of patients [2, 4]: 26.7%
AST Low, % of patients [2, 4]: 0.0%

— patent US10300042B2, “Apremilast for the treatment of a liver disease or a liver function abnormality” (Celgene Corporation, priority 2014, dated 2019)
